Here are results for three compounds from patent US7026355B2, “Use of rhein or diacerhein compounds for the treatment or prevention of vascular diseases” (Transition Therapeutics Inc., priority 2001, dated 2006).

Numbered stars: 1 amine (or outer) side, 2 acyl side, 3 side chain; on linkers, the order of the positions; unused ones are H or OH. Bridge positions count the residues as written; N and C are the ends. Square brackets hold non-standard residues; d marks the D form. Peptide text beside a SMILES is read from it. I, II: the chains in the order shown. Actinocin(9to1) = Cc1c2oc3c(C)ccc(C(=O)[*:1])c3nc-2c(C(=O)[*:2])c(N)c1=O; NMeV = CN[C@H](C(=O)O)C(C)C; Sar = CNCC(=O)O

In series [1] the test system is aortic smooth muscle cells. Description: prolonged incubation (1-3 days), cells counted with a hemocytometer. The format is cell-based, Rat. The method, then:
(§1) The CellTiter 96® AQueous One Solution Cell Proliferation Assay (Promega) was used as a colorimetric method for determining the number of viable cells in proliferation. Cell proliferation assays were performed by adding a small amount of the CellTiter 96® AQueous One Solution Reagent directly to culture wells, incubating for 1–4 hours and then recording absorbance at 490 nm with a 96 well plate reader. The quantity of formazan product as measured by the amount of 490 nm absorbance is known in the art to be directly proportional to the number of living cells in the culture. For the assay, cells were incubated with rhein or diacerhein for 24 h. In addition, cells from selected concentrations are also treated with rhein or diacerhein and are incubated for 1–3 days. The cells are harvested and counted using a hemocytometer. Trypan blue staining was carried out to determine % of viable cells vs dead cells.
Intimal smooth muscle cell (SMC) proliferation plays a key role in atherosclerosis and restenosis following vascular injury. Therefore, rhein or diacerhein is predicted to effectively treat these disease states.

The test system of series [2] is Rat aortic smooth muscle cells (A-10 cells). Briefly: in vitro assay of smooth muscle cell migration after scrape injury. It counts as cell-based. The conditions noted are these: incubation 20 h. As for the experimental part:
The following in vitro assay was conducted to illustrate the effect of diacerhein on smooth muscle cell migration. Increased smooth muscle cell migration following injury is one of the predominant causes of obstruction of the vascular system following stenting and other vascular procedures.
Rat aortic smooth muscle cells (A-10 cells) were seeded at 2.5×10^5 cells/well in 6 well plates using Dulbecco's Modified Eagle Medium™ (Gibco BRL Cat. # 11885-084), 10% FBS and 1% Antibiotic Antimycotic (Gibco BRL Cat. # 15240). Confluency of cells after about 8 h was between 80˜90%. Cells were injured with the single edge cell scraper (one injury/well) then washed twice with PBS and treated with diacerhein at concentrations ranging from 50 μM to 100 μM. Images were taken using a X5 modulation objective (Zeiss, Germany) attached to a Zeiss Axiovert 100 inverted microscope equipped with Hoffman Modulation contrast optical filters (Greenvale, N.Y.).
The images were taken at zero time and following the incubation of smooth muscle cells with diacerhein for a period of 20 h.

Series [3] deals with A-10 cells. Description: CellTiter 96 AQueous One Solution Cell Proliferation Assay. It counts as cell-based, Rat. The conditions noted are these: for Measure of Proliferative Activity (Absorbance at 490 nm): 24 h, no treatment 0.775; for proliferative activity as compared to untreated cells: concentration higher than 10^−7 M. The method, then:
A-10 cells were seeded at 1.0×10^3 cells/well in 96 well plates using Dulbecco's Modified Eagle Medium™ (Gibco BRL Cat. # 11885-084), 10% FBS and 1% Antibiotic Antimycotic (Gibco BRL Cat. # 15240) and allowed to grow overnight. Prior to treatment, cells were washed and the culture medium was replaced with culture medium containing either rhein or diacerhein at varying concentrations ranging from 10^−4 to 10^−8M.
as §1

The test system of the next series is iron regulatory protein. The conditions noted are these: inflamed human monocytes; cited from earlier work.
For series [4], the system named is prostaglandin E2 synthesis. The conditions noted are these: cited from earlier work.
The subject of series [5] is A-10 cells. Description: Trypan blue staining, % of viable cells vs dead cells. It counts as cell-based. The conditions noted are these: no treatment 96.2%. The method, then: as §1
For series [6] the following is noted: 5 to 50 mg/kg for periods as long as 50 weeks; cited from earlier work.
For series [7] the following is noted: clinical trials of actinomycin-D eluting stents; cited from earlier work.

In the case of `CC(=O)Oc1cccc2c1C(=O)c1c(OC(C)=O)cc(C(=O)O)cc1C2=O` [Diacerhein, 4,5-bis(acetyloxy)-9,10-dihydro-4,5dihydroxy-9,10-dioxo-2-anthracenecarboxylic acid], the “anti-proliferative activity on prolonged incubation (FIG. 2)” value in series [1] is recorded as “anti-proliferative activity”. Further, the “migration of smooth muscle cells” value in series [2] (50 μM) and in series [2] (100 μM) was “significantly inhibited” throughout. Moreover, the “Measure of Proliferative Activity (Absorbance at 490 nm)” value (“Measure of Proliferative Activity” below) was 0.561 in the series with A-10 cells [3] (Treatment with 2.5 × 10^−5 M); 0.419 in the series with A-10 cells [3] (Treatment with 5.0 × 10^−5 M); 0.408 with A-10 cells [3] (Treatment with 7.5 × 10^−5 M); 0.380 in the series on A-10 cells [3] (Treatment with 10^−4 M); 0.646 with A-10 cells [3] (Treatment with 10^−5 M); 0.710 in the series with A-10 cells [3] (Treatment with 10^−6 M). The “Measure of Proliferative Activity” value with A-10 cells [3] (Treatment with 10^−7 M) worked out at 0.738. Also, in the series on A-10 cells [3], the “proliferative activity as compared to untreated cells” value is recorded as “decrease in proliferative activity”. The “iron regulatory protein activation” value with iron regulatory protein is “inhibits iron regulatory protein activation”. In addition, the “prostaglandin E2 synthesis” value in series [4] was “stimulates prostaglandin E2 synthesis”. Besides, the “Percentage of viable cells” value worked out at 97.0% in the series on A-10 cells [5] (Treatment with 10^−4 M), 97.5% in the series with A-10 cells [5] (Treatment with 10^−5 M) and 96.2% with A-10 cells [5] (Treatment with 10^−6 M). The severity of osteoarthritis entry in series [6] is listed as “reduced the severity of osteoarthritis”.
For `O=C(O)c1cc(O)c2c(c1)C(=O)c1cccc(O)c1C2=O` [Rhein, 9,10-dihydro-4,5-dihydroxy-9,10-dioxo-2-anthracenecarboxylic acid], the “anti-proliferative activity on prolonged incubation (FIG. 2)” value in series [1] is given as “anti-proliferative activity”. The “Measure of Proliferative Activity” value in the series with A-10 cells [3] (Treatment with 2.5 × 10^−5 M) is on record as 0.577; in the series on A-10 cells [3] (Treatment with 5.0 × 10^−5 M), 0.518; in the series on A-10 cells [3] (Treatment with 7.5 × 10^−5 M) it was 0.460; in the series with A-10 cells [3] (Treatment with 10^−4 M), 0.430; in the series with A-10 cells [3] (Treatment with 10^−5 M), 0.675; with A-10 cells [3] (Treatment with 10^−6 M), 0.738. For the same compound, the “Measure of Proliferative Activity” value in the series on A-10 cells [3] (Treatment with 10^−7 M) is reported as 0.891. Besides, the “proliferative activity as compared to untreated cells” value with A-10 cells [3] is on record as “decrease in proliferative activity”. Moreover, the “Percentage of viable cells” value in the series on A-10 cells [5] (Treatment with 10^−4 M) came out at 97.1%; with A-10 cells [5] (Treatment with 10^−5 M) it was 96.0%; with A-10 cells [5] (Treatment with 10^−6 M), 97.5%.
For `Cc1c2oc3c(C)ccc(C(=O)N[C@@H]4C(=O)N[C@H](C(C)C)C(=O)N5CCC[C@H]5C(=O)N(C)CC(=O)N(C)[C@@H](C(C)C)C(=O)O[C@@H]4C)c3nc-2c(C(=O)N[C@@H]2C(=O)N[C@H](C(C)C)C(=O)N3CCC[C@H]3C(=O)N(C)CC(=O)N(C)[C@@H](C(C)C)C(=O)O[C@@H]2C)c(N)c1=O` [actinomycin D] (I: T[dV]P[Sar][NMeV] / II: T[dV]P[Sar][NMeV]; ester I:1-I:C, II:1-II:C; linker I:N-II:N via Actinocin(9to1)), in series [7], the prevention of restenosis entry is “ineffectiveness”.
